Here are results for 34 compounds from US10689357B2, “N-acylethanolamine hydrolyzing acid amidase (NAAA) inhibitors and use thereof” (Northeastern University, priority 2018, dated 2020).

One may read the IC50 as the concentration needed to halve the response being measured.

SMILES strings stand for the structures. Where only a bound is given, the exact number is not on record here.

In the assay the target is hNAAA (Homo sapiens (Human), UniProt Q02083). As to the kind of experiment: NAAA fluorescence-based inhibition assay with PAMCA substrate. Conditions: purified activated hNAAA, PAMCA 5 μM, pH 4.5, 37° C. In kind it is biochemical. From the text: In order to have an assay method more conducive to high-throughput screening than those published for measuring the NAE hydrolyzing activity of NAAA [Proc. Natl. Acad. Sci. USA. 2009; 106(49):20966-71], the fluorogenic PEA analog N-(4-methyl coumarin)palmitamide (PAMCA), which is hydrolyzed to fluorescent 7-amino-4-methyl coumarin (AMC) and palmitic acid, was developed. [J. Proteome Res. 2012; 11(2):972-981], [PloS One. 2012; 7: e43877]. For three point concentration inhibition assays with hNAAA the following procedure was used. Purified activated NAAA (final concentration of 0.25 μg/mL) was incubated in assay buffer (100 mM citrate-phosphate buffer, pH 4.5, 3 mM DTT, 0.1% Triton X-100, 0.05% BSA, and 150 mM NaCl) made up to a total volume of 180 μL, followed by addition of the compound dissolved in 10 μL DMSO (along with DMSO neat for the control sample) with the final concentrations for each compound of 100, 10, and 1 μM, in triplicate on a 96 well plate. These samples were allowed to incubate for 15 min at room temperature and then 10 μL of a PAMCA stock solution in DMSO (final PAMCA concentration [5 μM]) was added. After 5 minutes of agitation on a shaking plate, the reaction was allowed to proceed at 37° C. for 120 minutes, with fluorescence readings taken every 10 minutes at a wavelength of 460 nm (using an excitation wavelength of 360 nm) on a Synergy HT Plate Reader using Gen5 software from Bio-Tek. The enzyme activity was calculated by converting the relative fluorescence units to AMC formed, using a standard curve of AMC.
hNAAA, sequence (Q02083 29-125): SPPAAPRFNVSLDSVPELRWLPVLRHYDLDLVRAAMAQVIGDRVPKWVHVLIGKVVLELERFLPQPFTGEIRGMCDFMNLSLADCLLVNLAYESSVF
hNAAA, sequence (Q02083 126-359): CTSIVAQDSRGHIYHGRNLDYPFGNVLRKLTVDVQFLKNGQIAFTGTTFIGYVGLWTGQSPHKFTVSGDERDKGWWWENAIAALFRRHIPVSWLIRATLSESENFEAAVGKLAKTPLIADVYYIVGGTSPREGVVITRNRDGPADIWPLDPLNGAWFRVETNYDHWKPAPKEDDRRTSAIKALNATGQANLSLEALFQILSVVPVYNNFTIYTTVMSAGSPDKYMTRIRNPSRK
For compounds that inhibit hNAAA in range IC50<1 μM, full inhibition curves using eight different concentrations of inhibitor (8 point assay) were generated. The assay procedure used was the same as the three point assay. For ostensibly covalent compounds (as observed by a significant decrease in the slope of a plot of fluorescence vs. time in three point screen), samples were allowed to incubate for 2 hours at 37° C., instead of 15 minutes, before addition of 10 μL of a PAMCA stock solution in DMSO for a final PAMCA concentration of 5 μM. After 5 minutes of agitation on a shaking plate, the reaction was allowed to proceed at 37° C. for 120 minutes. Inhibition constants were calculated using pro Fit software (Quantum Soft, Uetikon am See, Switzerland) and a Levenberg-Marquardt algorithm.
`COc1ccc(/C=C/C(=O)N[C@H]2C[C@@H](N=C=S)C2)cc1` [Example 1, (E)-N-((1s, 3s)-3-Isothiocyanatocyclobutyl)-3-(4-methoxyphenyl)acrylamide]: the IC50 was over 1000 nM. The figure for `COc1cccc(-c2ccc(C(=O)N[C@H]3C[C@@H](N=C=S)C3)cc2)c1` [Example 2, N-((1r, 3r)-3-Isothiocyanatocyclobutyl)-3′-methoxy-[1,1′-biphenyl]-4-carboxamide] is 110 to 1000 nM.

Consider `COc1cccc(-c2ccc(C(=O)O[C@H]3C[C@@H](N=C=S)C3)cc2)c1` [Example 3, (1r, 3r)-3-Isothiocyanatocyclobutyl 3′-methoxy-[1,1′-biphenyl]-4-carboxylate], for which the IC50 lay in the range of 10 to 100 nM. With `COc1ccc(Oc2ccc(C(=O)N[C@H]3C[C@H](N=C=S)C3)cc2)cc1` [Example 4, N-((1r, 3r)-3-Isothiocyanatocyclobutyl)-4-(4-methoxyphenoxy)benzamide], the IC50 is over 1000 nM. In the case of `O=C(N[C@H]1C[C@@H](N=C=S)C1)c1ccc(N2CCOCC2)cc1` [Example 5, N-((1r, 3r)-3-Isothiocyanatocyclobutyl)-4-morpholinobenzamide], the IC50 is over 1000 nM. In the case of `O=C(N[C@H]1C[C@@H](N=C=S)C1)c1ccc(Oc2cccnc2)cc1` [Example 6, N-((1r, 3r)-3-Isothiocyanatocyclobutyl)-4-(pyridin-3-yloxy)benzamide], the IC50 is 110 to 1000 nM. As to `COc1ccc(-c2ccc(C(=O)N[C@H]3C[C@@H](N=C=S)C3)c(F)c2)cc1` [Example 7, 3-Fluoro-N-((1r, 3r)-3-isothiocyanatocyclobutyl)-4′-methoxy-[1,1′-biphenyl]-4-carboxamide], the IC50 was in the range of 10 to 100 nM. Consider `COc1ccc(-c2ccc(C(=O)O[C@H]3C[C@@H](N=C=S)C3)c(F)c2)cc1` [Example 8, (1r, 3r)-3-Isothiocyanatocyclobutyl 3-fluoro-4′-methoxy-[1,1′-biphenyl]-4-carboxylate], for which the IC50 is 10 to 100 nM. Next, `COc1ccc(-c2ccc(C(=O)N[C@]34C[C@](N=C=S)(C3)C4)c(F)c2)cc1` [Example 9, 3-Fluoro-N-(3-isothiocyanatobicyclo[1.1.1]pentan-1-yl)-4′-methoxy-[1,1′-biphenyl]-4-carboxamide]: over 1000 nM; `COc1ccc2cc(C(=O)N[C@H]3C[C@@H](N=C=S)C3)ccc2c1` [Example 10, N-((1s, 3 s)-3-Isothiocyanatocyclobutyl)-6-methoxy-2-naphthamide]: over 1000 nM; `CC[C@H]1CC[C@H](c2ccc(C(=O)N[C@H]3C[C@@H](N=C=S)C3)cc2)CC1` [Example 11, 4-((1s, 4s)-4-Ethylcyclohexyl)-N-((1r, 3R)-3-isothiocyanatocyclobutyl) benzamide]: over 1000 nM. Turning to `COc1ccc(CCC(=O)N[C@H]2C[C@@H](N=C=S)C2)cc1` [Example 12, N-((1r, 3r)-3-Isothiocyanatocyclobutyl)-3-(4-methoxyphenyl)propanamide], the IC50 fell in the range of 110 to 1000 nM. The figure for `COc1ccc(C#CC(=O)N[C@H]2C[C@@H](N=C=S)C2)cc1` [Example 13, N-((1r, 3r)-3-Isothiocyanatocyclobutyl)-3-(4-methoxyphenyl)propiolamide] is 110 to 1000 nM; for `COc1ccc(C2CC2C(=O)N[C@H]2C[C@@H](N=C=S)C2)cc1` (stereo partly shown) [Example 14, N-((1r, 3r)-3-Isothiocyanatocyclobutyl)-2-(4-methoxyphenyl)cyclopropane-1-carboxamide] it is 10 to 100 nM; for `COc1ccc(CCCC(=O)N[C@H]2C[C@@H](N=C=S)C2)cc1` [Example 15, N-((1r, 3r)-3-Isothiocyanatocyclobutyl)-4-(4-methoxyphenyl)butanamide] it is 10 to 100 nM.

As to `COc1ccc(-c2cc(C(=O)N[C@H]3C[C@@H](N=C=S)C3)on2)cc1` [Example 16, N-((1r, 3r)-3-Isothiocyanatocyclobutyl)-3-(4-methoxyphenyl)isoxazole-5-carboxamide], the IC50 is 10 to 100 nM. Next, `COc1ccc(N2CCC(C(=O)N[C@H]3C[C@@H](N=C=S)C3)CC2)cc1` [Example 17, N-((1r, 3 r)-3-Isothiocyanatocyclobutyl)-1-(4-methoxyphenyl)piperidine-4-carboxamide]: 110 to 1000 nM; `COc1ccc(-c2ccc(C(=O)N[C@H]3C[C@@H](N=C=S)C3)nc2)cc1` [Example 18, N-((1s, 3 s)-3-Isothiocyanatocyclobutyl)-5-(4-methoxyphenyl)picolinamide]: 10 to 100 nM. Next, `COc1ccc(-c2ccc(C(=O)N[C@H]3C[C@@H](N=C=S)C3)nc2)cc1F` [Example 19, 5-(3-Fluoro-4-methoxyphenyl)-N-((1r, 3r)-3-isothiocyanatocyclobutyl) picolinamide]: 10 to 100 nM. Next, `COc1cccc(-c2ccc(C(=O)N[C@H]3C[C@@H](N=C=S)C3)nc2)c1` [Example 20, N-((1r, 3r)-3-Isothiocyanatocyclobutyl)-5-(3-methoxyphenyl)picolinamide]: 110 to 1000 nM.

On to `COc1ccc(-c2cnc(C(=O)N[C@H]3C[C@@H](N=C=S)C3)cn2)cc1` [Example 22, N-((1r, 3r)-3-Isothiocyanatocyclobutyl)-5-(4-methoxyphenyl)pyrazine-2-carboxamide], for which the IC50 was in the range of 110 to 1000 nM. Consider `N#Cc1ccc(-c2ccc(C(=O)N[C@H]3C[C@@H](N=C=S)C3)nc2)cc1` [Example 23, 5-(4-cyanophenyl)-N-((1r, 3r)-3-Isothiocyanatocyclobutyl)picolinamide], for which the IC50 lay in the range of 110 to 1000 nM.

Consider `COc1ccc(Nc2ccc(C(=O)N[C@H]3C[C@@H](N=C=S)C3)nc2)cc1` [Example 24, N-((1r, 3r)-3-Isothiocyanatocyclobutyl)-5-((4-methoxyphenyl)amino) picolinamide], for which the IC50 was over 1000 nM. As to `COc1ccc(-c2ccc(S(=O)(=O)N[C@H]3C[C@@H](N=C=S)C3)cc2)cc1` [Example 25, N-((1r, 3r)-3-Isothiocyanatocyclobutyl)-4′-methoxy-[1,1′-biphenyl]-4-sulfonamide], the IC50 was 10 to 100 nM. With `COc1ccc(-c2ccc(S(=O)(=O)N[C@H]3C[C@@H](N=C=S)C3)nc2)cc1` [Example 26, N-((1s, 3s)-3-Isothiocyanatocyclobutyl)-5-(4-methoxyphenyl)pyridine-2-sulfonamide], the IC50 lay within 10 to 100 nM.

In the case of `COc1ccc(-c2ccc(S(=O)(=O)O[C@H]3C[C@@H](N=C=S)C3)cc2)cc1` [Example 27, (1s, 3 s)-3-Isothiocyanatocyclobutyl 4′-methoxy-[1,1′-biphenyl]-4-sulfonate], the IC50 lay within 10 to 100 nM. For the compound `COc1ccc(-c2ccc(C(=O)O[C@H]3C[C@@H](N=C=S)C3)c(F)c2)cc1F` [Example 28, (1s,3s)-3-isothiocyanatocyclobutyl 3,3′-difluoro-4′-methoxy-[1,1′-biphenyl]-4-carboxylate], the IC50 was in the range of 10 to 100 nM. Next, `COc1ccc(-c2ccc(C(=O)N[C@H]3C[C@@H](N=C=S)C3)c(F)c2)cc1F` [Example 29, 3,3′-Difluoro-N-((1s,3s)-3-isothiocyanatocyclobutyl)-4′-methoxy-[1,1′-biphenyl]-4-carboxamide]: 10 to 100 nM; `COc1ccc(-c2ccc(S(=O)(=O)N[C@H]3C[C@@H](N=C=S)C3)cc2)cc1F` [Example 30, 3′-Fluoro-N-((1s,3s)-3-isothiocyanatocyclobutyl)-4′-methoxy-[1,1′-biphenyl]-4-sulfonamide]: 10 to 100 nM. On to `COc1ccc(-c2ccc(S(=O)(=O)O[C@H]3C[C@@H](N=C=S)C3)cc2)cc1F` [Example 31, (1s,3s)-3-Isothiocyanatocyclobutyl 3′-fluoro-4′-methoxy-[1,1′-biphenyl]-4-sulfonate], for which the IC50 fell in the range of 10 to 100 nM. Next, `O=C(CCCCCc1ccccc1)N[C@H]1C[C@@H](N=C=S)C1` [Example 32, N-(1s,3s)-(3-Isothiocyanatocyclobutyl)-6-phenylhexanamide]: 10 to 100 nM; `COc1ccc(-c2ccc(OC(=O)N[C@H]3C[C@@H](N=C=S)C3)cc2)cc1` [Example 33, 4′-Methoxy-[1,1′-biphenyl]-4-yl ((1s,3s)-3-isothiocyanatocyclobutyl)carbamate]: 10 to 100 nM; `COc1ccc(-c2ccc(C(=O)N[C@H]3C[C@@H](N=C=S)C3)nc2)nc1` [Example 34, N-(cis-(3-Isothiocyanatocyclobutyl))-5-methoxy-[2,3′-bipyridine]-6′-carboxamide]: 10 to 100 nM. Turning to `COc1ccc(-c2ncc(C(=O)N[C@H]3C[C@@H](N=C=S)C3)o2)cc1` [Example 35, N-((cis)-3-isothiocyanatocyclobutyl)-2-(4-methoxyphenyl)oxazole-5-carboxamide], the IC50 fell in the range of 110 to 1000 nM.
